Where a SMILES comes first, the peptide text is derived from it.

For test [1], the system named is S. typhimurium. Format: cell-based. As to conditions: 24 h.
The test system of test [2] is mTOR. Briefly: mTOR independent activation of autophagy: western blot of S6Kinase / 4E-BP1 phosphorylation. The format is cell-based. The following applies: Huh7 cells, peptides 10 μM, 6 h. As for the experimental part:
FIG. 5 depicts mTOR independent activation of autophagy Huh7 cells were treated with peptides (10 μM) and torin1 (1 μM) for 6 h and lysed in lysis buffer (1mM EDTA, 20 mM Tris-HCl pH 7.4, 250 mM NaCl, PMSF, and PI). Western blot was performed by GAPDH (internal control), […] and S6K1 antibodies. The peptides were tested for inhibition of mTOR by testing for phosphorylation of enzyme p70S6K. The phosphorylation of p-p70S6K at threonine 389 has been used as a hallmark of activation by mTOR.
Huh7/HeLa cells were treated with peptides 10 μM for 6 h and protein lysates were analysed by western blotting using pS6Kinase, S6Kinase, p-4E-BP1, 4E-BP1 and GAPDH antibodies. Torin 1 was used as positive control.

In test [3] the test system is S. typhimurium (strain Xen33). Briefly: In vivo S. typhimurium (Xen33) infection and disease progression in FVB mice. As for the experimental part: For the in vivo studies, mouse S. typhimurium (strain Xen33) infection carried out as per the previous protocol of Griffin et al., 2011. In brief, mice were pre-treated with streptomycin. Water and food were withdrawn before 4hours of infection. For the experiments, 6-8 weeks of FVB male mice were utilized in a group of 5. Mice related experiments and its maintenance were carried out in a small animal facility at THSTI, Faridabad. […] FVB mice were infected orally with Xen-33(S. typhimurium) and its bioluminescence was measured by in vivo imaging with IVIS Lumina (Perkin Elmer) and quantified with living image software version 4.2. Bioluminescent levels were measured as radiance (p/sec/cm^2/sr), by using a pseudo scale for measurement in which blue represents low intensity and red represents high intensity. Posts in vivo imaging, the bacterial burden in faecal sample were also measured.
Mice having Salmonella typhimurium infection or non-infected were sacrificed and their intestine was removed for immunohistochemistry studies. Intestines were washed with PBS and fixed in 10% formaldehyde. Thereafter, fine-sectioned on a microtome. Tissue blocks were prepared on Paraffin wax and then hematoxylin and eosin (HE) staining was carried out. The finally stained sections were then observed, and images were acquired by using the Ti Eclipse Nikon microscope. The scoring was done by random scoring by different individuals.
In vivo effect of p7T treatment on S. typhimurium infection and disease progression in FVB mice. Recovery of chronically S. typhimurium infected FVB mice was studied in the presence of P7T&P13T. […] Colon samples were further examined for histological changes. […] The stool was collected, plated on SS agar to determine S. typhimurium colony formation.
(c) In vivo imaging and intensity quantitation of mice infected with S. typhimurium strain (Xen33) expressing luciferase on the 8th day (n=5 mice per group). […] (i) Immunohistochemistry images (40×) showing expression of HIF-1α and its quantification in the colon (n=5). […] Data representative of triplicates and repeated three times each individual experiments*P<0.05, **P <0.01, ***P<0.001, **** P<0.0001, ns, non-significant. (Student's t-test and one-way ANOVA).

Test [4] has as its target T1, GAPR-1 (UniProt Q9H4G4 2-154, limits assumed).
T1 construct: Purified protein used in MST; also called purified Gapr-1
T1 sequence (looked up): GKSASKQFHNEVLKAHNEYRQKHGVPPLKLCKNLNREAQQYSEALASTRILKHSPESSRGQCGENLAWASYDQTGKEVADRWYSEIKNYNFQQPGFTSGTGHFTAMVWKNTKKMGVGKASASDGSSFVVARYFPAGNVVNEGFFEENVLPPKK
Briefly: MicroScale Thermophoresis (MST), purified Gapr-1. Background: Microscale thermophoresis detects binding through changes in fluorescence in a small temperature gradient.

Test [5] addresses T1, GAPR-1. Briefly: MicroScale Thermophoresis (MST), peptide titrated on purified Gapr-1; fraction bound against peptide conc. (M) [3A].
Where [6] appears, read: FVB mice infected with S. typhimurium.

In the case of `NC(=O)C[C@H](NC(=O)CNC(=O)[C@H](Cc1ccc(O)cc1)NC(=O)[C@@H]1CCCN1)C(=O)N[C@@H](Cc1c[nH]cn1)C(=O)N[C@@H](CO)C(=O)N[C@@H](Cc1ccc(O)cc1)C(=O)O` [P3T] (H-PYGNHSY-OH; N-terminus and C-terminus assumed), in test [1], the “inhibition of S. typhimurium” value amounted to 49.5%.

For the molecule `CC[C@H](C)[C@H](NC(=O)[C@@H](NC(=O)CNC(=O)[C@@H](N)Cc1ccccc1)[C@@H](C)O)C(=O)N[C@@H](CC(N)=O)C(=O)N[C@@H](CC(N)=O)C(=O)N[C@@H](Cc1ccccc1)C(=O)N[C@@H](CCCNC(=N)N)C(=O)N[C@@H](CC(C)C)C(=O)O` [P7T] (H-FGTINNFRL-OH), the “interference with phosphorylation of p70S6K and mTOR activity” value (“interference with phosphorylation” for short) in test [2] was “did not interfere with the phosphorylation of p70S6K and mTOR activity”. For the same molecule, the “bacterial burden in faecal sample / stool” value in test [3] (FVB mice infected orally with Xen-33, stool plated on SS agar) is listed as “significant decrease in bacterial burden”. Besides, in test [3] (setting [6]), the “length of the colon” value is recorded as “significantly reduced in untreated mice compare to P7T” and the splenomegaly result is recorded as “difference in splenomegaly was not observed”. In addition, the histopathology score entry in test [3] (intestine/colon H&E staining, FVB mice infected with S. typhimurium) is reported as “significantly less”.

`CC(C)C[C@H](NC(=O)CNC(=O)CNC(=O)[C@H](CO)NC(=O)[C@H](CS)NC(=O)[C@H](Cc1ccc(O)cc1)NC(=O)[C@@H](N)CC(C)C)C(=O)N[C@@H](CCCNC(=N)N)C(=O)N[C@@H](Cc1ccccc1)C(=O)N[C@@H](Cc1ccccc1)C(=O)N[C@@H](Cc1c[nH]c2ccccc12)C(=O)N[C@@H](CC(=O)O)C(=O)O` [P8T] (H-LYCSGGLRFFWD-OH): in test [1], the “inhibition of S. typhimurium” value worked out at 62.16%.

As for `CC(C)C[C@H](NC(=O)[C@H](C)NC(=O)[C@H](Cc1c[nH]cn1)NC(=O)[C@H](CC(C)C)NC(=O)[C@H](CC(C)C)NC(=O)[C@H](CC(C)C)NC(=O)[C@@H](NC(=O)[C@@H](NC(=O)[C@@H](N)CCC(N)=O)[C@@H](C)O)C(C)C)C(=O)O` [P9T] (H-QTVLLLHAL-OH), in test [2], the “interference with phosphorylation” value was “did not interfere with the phosphorylation of p70S6K and mTOR activity”.

In the case of `CC(C)C[C@H](NC(=O)[C@H](Cc1ccc(O)cc1)NC(=O)[C@H](CO)NC(=O)[C@H](Cc1c[nH]cn1)NC(=O)[C@H](CC(N)=O)NC(=O)CNC(=O)[C@H](Cc1ccc(O)cc1)NC(=O)[C@@H]1CCCN1C(=O)[C@@H](NC(=O)[C@H](CC(C)C)NC(=O)[C@@H](N)CCCNC(=N)N)C(C)C)C(=O)N[C@@H](CCC(=O)O)C(=O)N[C@@H](CO)C(=O)O` [P13T] (H-RLVPYGNHSYLES-OH), the “interference with phosphorylation” value in test [2] was “did not interfere with the phosphorylation of p70S6K and mTOR activity”.

As usually defined, the Kd is a measure of binding affinity in units of concentration. Low values mean higher affinity, high ones lower affinity. Molecule FGTINNFRL (also called peptide P7T) [P7T] registered a Kd in test [4] of 130 nM.

Consider QTVLLLHAL (also called peptide P9T) [P9T], for which, in test [4], the Kd turned out to be 1560 nM.

As for PYGNHSY (also called peptide P3T) [P3T], the Kd in test [5] is 210 nM.

In turn, RLVPYGNHSYLES (also called peptide P13T) [P13T] returned a Kd in test [4] of 70 nM.

LYCSGGLRFFWD (also called peptide P8T) [P8T] gave a Kd in test [4] of 120 nM.

Values taken from US20230321188A1, “AUTOPHAGY INDUCING PEPTIDES” (TRANSLATIONAL HEALTH SCIENCE AND TECHNOLOGY INSTITUTE, priority 2020, published 2023).
